Measurements published in ChEMBL document CHEMBL1148857, “In vitro and in vivo profile of 5-[(4'-trifluoromethyl-biphenyl-2-carbonyl)-amino]-1H-indole-2-carboxylic acid benzylmethyl carbamoylamide (dirlotapide), a novel potent MTP inhibitor for obesity” (Bioorg Med Chem Lett, 2007).
Active and inactive are the calls of the source. No cut-off for these calls is given here.

Legend:
[1] = AUC (0 to t) in monkey at 0.5 mg/kg, iv; type: ADME, organism-based, Macaca mulatta; design: dose 0.5 mg/kg, route intravenous; settings: rhesus monkey, plasma
[2] = AUC (0 to infinity) in Beagle dog at 0.5 mg/kg, iv; type: ADME, organism-based, Canis lupus familiaris; design: time infinity, dose 0.5 mg/kg, route intravenous; settings: plasma
Homo sapiens [3] = species: Homo sapiens; assay: Inhibition of neuronal nicotinic receptor at 1 uM
Plasma [4] = assay: Percentage unbound ligand in monkey blood at 0.2 uM; type: ADME, cell-free, Macaca mulatta; settings: rhesus monkey
[5] = target: D(1A) dopamine receptor (Homo sapiens) (UniProt P21728); assay: Inhibition of dopamine D1 receptor at 1 uM
[6] = target: Muscarinic acetylcholine receptor M4 (Homo sapiens) (UniProt P08173); assay: Inhibition of muscarinic M4 receptor at 1 uM
[7] = Permeability from apical to basolateral side of the Caco-2 cell membrane at 1 uM in presence of calcium; type: ADME, cell-based; settings: human
CYP1A2 = assay: Metabolic stability in human liver microsome at 0.5 uM in presence of 5 uM CYP1A2 inhibitor furafylline; type: ADME; settings: liver microsomes, with 5 uM furafylline (CYP1A2 inhibitor)
[8] = AUC (0 to infinity) in rat at 3 mg/kg, po; type: ADME, organism-based; design: time infinity, dose 3 mg/kg, route oral; settings: plasma
[9] = Volume of distribution at steady state in Beagle dog at 0.5 mg/kg, iv; type: ADME, organism-based, Canis lupus familiaris; design: dose 0.5 mg/kg, route intravenous; settings: in vivo, read-out: Vdss
[10] = Tmax in rat at 3 mg/kg, po; type: ADME, organism-based; design: dose 3 mg/kg, route oral; settings: in vivo
[11] = AUC (0 to infinity) in Beagle dog at 5 mg/kg, po; type: ADME, organism-based, Canis lupus familiaris; design: time infinity, dose 5 mg/kg, route oral; settings: plasma
[12] = Cmax in rat at 3 mg/kg, po; type: ADME, organism-based; design: dose 3 mg/kg, route oral; settings: in vivo
Homo sapiens [13] = species: Homo sapiens; assay: Inhibition of IKr potassium channel at 1 uM
[14] = Plasma clearance in Beagle dog at 1 mg/kg, iv; type: ADME, organism-based, Canis lupus familiaris; design: dose 1 mg/kg, route intravenous
[15] = Bioavailability in Beagle dog at 5 mg/kg, po; type: ADME, organism-based, Canis lupus familiaris; settings: in vivo
[16] = Half life in portal cannulated Beagle dog at 1 mg/kg, iv; type: ADME, organism-based, Canis lupus familiaris; design: dose 1 mg/kg, route intravenous; settings: in vivo
[17] = Permeability from apical to basolateral side of the Caco-2 cell membrane at 10 uM in presence of calcium; type: ADME, cell-based; settings: human
[18] = Tmax in rat at 30 mg/kg, po; type: ADME, organism-based; design: dose 30 mg/kg, route oral; settings: in vivo
Homo sapiens [19] = species: Homo sapiens; assay: Inhibition of tachykinin receptor at 1 uM
[20] = target: Beta-1 adrenergic receptor (Homo sapiens) (UniProt P08588); assay: Inhibition of adrenergic b1 receptor at 1 uM
[21] = target: Type-1 angiotensin II receptor (Homo sapiens) (UniProt P30556); assay: Inhibition of AT1 receptor at 1 uM
[22] = target: Delta-type opioid receptor (Homo sapiens) (UniProt P41143); assay: Inhibition of delta opioid receptor at 1 uM
[23] = Volume of distribution at steady state in rat at 5 mg/kg, iv; type: ADME, organism-based; design: dose 5 mg/kg, route intravenous; settings: in vivo, read-out: Vdss
[24] = AUC (0 to infinity) in male rat at 30 mg/kg, po; type: ADME, organism-based; design: time infinity, dose 30 mg/kg, route oral; settings: plasma
[25] = Half life in Beagle dog at 0.5 mg/kg, po; type: ADME, organism-based, Canis lupus familiaris; design: dose 0.5 mg/kg, route oral; settings: in vivo
[26] = Half life in rat at 30 mg/kg, po; type: ADME, organism-based; design: dose 30 mg/kg, route oral; settings: in vivo
Plasma [27] = assay: Percentage unbound ligand in human blood at 0.2 uM; type: ADME, cell-free
[28] = AUC (0 to infinity) in rat at 0.3 mg/kg, iv; type: ADME, organism-based; design: time infinity, dose 0.3 mg/kg, route intravenous; settings: plasma
[29] = Permeability from basolateral to apical side of the Caco-2 cell membrane at 1 uM in presence of calcium; type: ADME, cell-based; settings: human
[30] = Plasma clearance in portal cannulated Beagle dog at 1 mg/kg, iv; type: ADME, organism-based, Canis lupus familiaris; design: dose 1 mg/kg, route intravenous
[31] = Bioavailability in Beagle dog at 0.5 mg/kg, po; type: ADME, organism-based, Canis lupus familiaris; settings: in vivo
[32] = AUC (0 to infinity) in rat at 1 mg/kg, iv; type: ADME, organism-based; design: time infinity, dose 1 mg/kg, route intravenous; settings: plasma
[33] = Bioavailability in rat at 3 mg/kg, po; type: ADME, organism-based; settings: in vivo
[34] = target: 5-hydroxytryptamine receptor 7 (Homo sapiens) (UniProt P34969); assay: Inhibition of 5HT7 receptor at 1 uM
[35] = target: Microsomal triglyceride transfer protein large subunit (Homo sapiens, UniProt P55157); assay: Inhibition of MTP assessed as inhibition of apoB secretion from human HepG2 cells; type: cell-based
[36] = target: Adenosine receptor A2a (Homo sapiens) (UniProt P29274); assay: Inhibition of adenosine A2a receptor at 1 uM
Homo sapiens [37] = species: Homo sapiens; assay: Inhibition of muscle nicotinic receptor at 1 uM
[38] = Half life in rat at 0.3 mg/kg, iv; type: ADME, organism-based; design: dose 0.3 mg/kg, route intravenous; settings: in vivo
[39] = Permeability from apical to basolateral side of the Caco-2 cell membrane at 1 uM; type: ADME, cell-based; settings: human
Homo sapiens [40] = species: Homo sapiens; assay: Inhibition of NMDA receptor at 1 uM
[41] = Cmax in portal cannulated Beagle dog at 1 mg/kg, po; type: ADME, organism-based, Canis lupus familiaris; design: dose 1 mg/kg, route oral; settings: in vivo
[42] = target: Kappa-type opioid receptor (Homo sapiens) (UniProt P41145); assay: Inhibition of kappa opioid receptor at 1 uM
[43] = target: 5-hydroxytryptamine receptor 2C (Homo sapiens) (UniProt P28335); assay: Inhibition of 5HT2C receptor at 1 uM
[44] = target: Muscarinic acetylcholine receptor M1 (Homo sapiens) (UniProt P11229); assay: Inhibition of muscarinic M1 receptor at 1 uM
CYP2C9 = assay: Metabolic stability in human liver microsome at 0.5 uM in presence of 5 uM CYP2C9 inhibitor sulfaphenazole; type: ADME; settings: liver microsomes, with 5 uM sulfaphenazole (CYP2C9 inhibitor)
[45] = Plasma clearance in monkey at 0.5 mg/kg, iv; type: ADME, organism-based, Macaca mulatta; design: dose 0.5 mg/kg, route intravenous; settings: rhesus monkey
[46] = AUC (0 to t) in rat at 5 mg/kg, iv; type: ADME, organism-based; design: dose 5 mg/kg, route intravenous; settings: plasma
[47] = Bioavailability in portal cannulated Beagle dog at 1 mg/kg, po; type: ADME, organism-based, Canis lupus familiaris; settings: in vivo
[48] = Metabolic stability in human liver microsome at 0.5 uM; type: ADME; settings: liver microsomes
[49] = AUC (0 to t) in rat at 1 mg/kg, iv; type: ADME, organism-based; design: dose 1 mg/kg, route intravenous; settings: plasma
[50] = Cmax in Beagle dog at 0.5 mg/kg, po; type: ADME, organism-based, Canis lupus familiaris; design: dose 0.5 mg/kg, route oral; settings: in vivo
[51] = Half life in rat at 3 mg/kg, po; type: ADME, organism-based; design: dose 3 mg/kg, route oral; settings: in vivo
[52] = AUC (0 to t) in Beagle dog at 0.5 mg/kg, iv; type: ADME, organism-based, Canis lupus familiaris; design: dose 0.5 mg/kg, route intravenous; settings: plasma
Cytochrome P450 1A2 = Cytochrome P450 1A2 (Homo sapiens, UniProt P05177); assay: Inhibition of CYP1A2; type: ADME
[53] = target: Muscarinic acetylcholine receptor M3 (Homo sapiens) (UniProt P20309); assay: Inhibition of muscarinic M3 receptor at 1 uM
[54] = Cmax in Beagle dog at 5 mg/kg, po; type: ADME, organism-based, Canis lupus familiaris; design: dose 5 mg/kg, route oral; settings: in vivo
[55] = target: Beta-2 adrenergic receptor (Homo sapiens) (UniProt P07550); assay: Inhibition of adrenergic b2 receptor at 1 uM
[56] = Plasma clearance in Beagle dog at 0.5 mg/kg, iv; type: ADME, organism-based, Canis lupus familiaris; design: dose 0.5 mg/kg, route intravenous
Mus musculus = species: Mus musculus; assay: Inhibition of hepatic MTP in mouse assessed as reduction of triglyceride; type: functional
Canis familiaris = assay: Increase in fecal fat in obese Beagle dog at 0.39 mg/kg, po after 3 months; type: functional, Canis lupus familiaris, Feces
[57] = target: Platelet-activating factor receptor (Homo sapiens) (UniProt P25105); assay: Inhibition of platelet activating factor receptor at 1 uM
Sequence of Platelet-activating factor receptor (Homo sapiens) (P25105 whole entry): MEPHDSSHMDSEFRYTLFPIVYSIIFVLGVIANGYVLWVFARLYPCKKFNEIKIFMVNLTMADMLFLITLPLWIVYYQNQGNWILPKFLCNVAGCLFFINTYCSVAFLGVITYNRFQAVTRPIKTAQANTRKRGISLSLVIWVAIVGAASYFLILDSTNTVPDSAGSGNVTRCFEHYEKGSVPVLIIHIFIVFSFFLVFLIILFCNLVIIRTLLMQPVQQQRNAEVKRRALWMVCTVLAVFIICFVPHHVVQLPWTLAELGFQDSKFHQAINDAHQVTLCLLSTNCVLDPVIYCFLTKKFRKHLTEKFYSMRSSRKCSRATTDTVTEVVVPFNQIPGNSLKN

Sequence of Cytochrome P450 1A2 (P05177 whole entry): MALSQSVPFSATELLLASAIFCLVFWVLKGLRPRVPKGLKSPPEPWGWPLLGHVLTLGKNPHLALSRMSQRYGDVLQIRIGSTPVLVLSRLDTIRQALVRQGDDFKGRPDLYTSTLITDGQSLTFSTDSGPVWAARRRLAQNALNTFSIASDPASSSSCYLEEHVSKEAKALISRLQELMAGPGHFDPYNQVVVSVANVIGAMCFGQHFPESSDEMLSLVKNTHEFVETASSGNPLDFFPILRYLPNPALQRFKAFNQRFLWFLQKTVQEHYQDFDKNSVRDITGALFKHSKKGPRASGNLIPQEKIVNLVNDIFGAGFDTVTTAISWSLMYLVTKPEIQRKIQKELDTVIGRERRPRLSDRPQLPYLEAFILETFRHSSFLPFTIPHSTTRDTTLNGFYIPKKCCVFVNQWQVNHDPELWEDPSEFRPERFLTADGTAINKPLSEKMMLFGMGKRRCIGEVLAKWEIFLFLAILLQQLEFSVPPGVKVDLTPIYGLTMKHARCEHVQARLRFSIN
Sequence of Delta-type opioid receptor (Homo sapiens) (P41143 whole entry): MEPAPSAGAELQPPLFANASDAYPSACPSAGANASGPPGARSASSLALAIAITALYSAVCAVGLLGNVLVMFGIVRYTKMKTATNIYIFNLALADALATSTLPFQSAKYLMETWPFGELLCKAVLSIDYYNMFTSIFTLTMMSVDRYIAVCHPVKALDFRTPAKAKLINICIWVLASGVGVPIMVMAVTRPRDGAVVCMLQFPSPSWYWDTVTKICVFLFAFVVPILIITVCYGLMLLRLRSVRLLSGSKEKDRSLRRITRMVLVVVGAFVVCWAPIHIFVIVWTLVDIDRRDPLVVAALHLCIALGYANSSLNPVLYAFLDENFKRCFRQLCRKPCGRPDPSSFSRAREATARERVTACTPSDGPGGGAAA
Sequence of Adenosine receptor A2a (Homo sapiens) (P29274 whole entry): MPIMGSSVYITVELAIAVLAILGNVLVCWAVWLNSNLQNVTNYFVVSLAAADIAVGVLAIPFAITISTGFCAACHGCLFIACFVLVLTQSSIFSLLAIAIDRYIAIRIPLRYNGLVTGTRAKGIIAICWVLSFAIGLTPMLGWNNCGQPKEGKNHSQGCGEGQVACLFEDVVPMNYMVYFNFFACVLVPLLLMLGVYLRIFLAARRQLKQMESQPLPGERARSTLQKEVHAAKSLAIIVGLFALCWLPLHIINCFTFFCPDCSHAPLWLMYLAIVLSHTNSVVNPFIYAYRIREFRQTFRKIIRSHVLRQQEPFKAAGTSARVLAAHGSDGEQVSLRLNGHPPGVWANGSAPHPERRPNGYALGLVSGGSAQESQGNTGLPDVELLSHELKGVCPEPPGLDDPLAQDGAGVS
Sequence of Muscarinic acetylcholine receptor M1 (Homo sapiens) (P11229 whole entry): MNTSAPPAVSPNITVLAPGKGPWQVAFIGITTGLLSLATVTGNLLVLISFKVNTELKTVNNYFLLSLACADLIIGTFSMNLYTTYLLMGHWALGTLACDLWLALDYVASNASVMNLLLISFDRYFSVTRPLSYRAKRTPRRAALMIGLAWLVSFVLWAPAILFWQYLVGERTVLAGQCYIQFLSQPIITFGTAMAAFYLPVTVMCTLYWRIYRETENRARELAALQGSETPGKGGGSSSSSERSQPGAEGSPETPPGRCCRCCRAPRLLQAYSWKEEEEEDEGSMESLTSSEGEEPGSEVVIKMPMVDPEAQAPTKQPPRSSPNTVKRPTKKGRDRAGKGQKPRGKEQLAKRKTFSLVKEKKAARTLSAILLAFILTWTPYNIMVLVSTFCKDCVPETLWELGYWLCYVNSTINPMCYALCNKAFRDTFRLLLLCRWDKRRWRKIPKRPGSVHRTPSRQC
Sequence of Type-1 angiotensin II receptor (Homo sapiens) (P30556 whole entry): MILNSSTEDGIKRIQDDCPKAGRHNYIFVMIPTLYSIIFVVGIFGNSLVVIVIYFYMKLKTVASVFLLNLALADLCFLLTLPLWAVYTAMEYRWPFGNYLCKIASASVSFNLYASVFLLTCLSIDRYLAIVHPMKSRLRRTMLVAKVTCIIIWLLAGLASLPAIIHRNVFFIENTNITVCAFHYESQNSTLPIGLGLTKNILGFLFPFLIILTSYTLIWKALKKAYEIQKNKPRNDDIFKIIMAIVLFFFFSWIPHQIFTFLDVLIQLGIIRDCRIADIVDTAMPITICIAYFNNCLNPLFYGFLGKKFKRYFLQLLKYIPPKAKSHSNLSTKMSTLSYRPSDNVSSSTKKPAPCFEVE
Sequence of Beta-2 adrenergic receptor (Homo sapiens) (P07550 whole entry, looked up): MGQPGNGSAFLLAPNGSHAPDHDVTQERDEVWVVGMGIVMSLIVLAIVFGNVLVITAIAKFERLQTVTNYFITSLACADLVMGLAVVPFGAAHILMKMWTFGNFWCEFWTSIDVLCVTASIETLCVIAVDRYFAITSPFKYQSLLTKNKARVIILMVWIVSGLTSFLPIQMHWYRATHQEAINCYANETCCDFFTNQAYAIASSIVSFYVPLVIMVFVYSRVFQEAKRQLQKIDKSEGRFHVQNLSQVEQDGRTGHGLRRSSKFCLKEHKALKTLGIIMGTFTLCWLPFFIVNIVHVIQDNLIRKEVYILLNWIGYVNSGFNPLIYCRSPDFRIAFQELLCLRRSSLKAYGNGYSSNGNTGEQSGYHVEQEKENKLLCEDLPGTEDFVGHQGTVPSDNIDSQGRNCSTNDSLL
Sequence of 5-hydroxytryptamine receptor 7 (Homo sapiens) (P34969 whole entry): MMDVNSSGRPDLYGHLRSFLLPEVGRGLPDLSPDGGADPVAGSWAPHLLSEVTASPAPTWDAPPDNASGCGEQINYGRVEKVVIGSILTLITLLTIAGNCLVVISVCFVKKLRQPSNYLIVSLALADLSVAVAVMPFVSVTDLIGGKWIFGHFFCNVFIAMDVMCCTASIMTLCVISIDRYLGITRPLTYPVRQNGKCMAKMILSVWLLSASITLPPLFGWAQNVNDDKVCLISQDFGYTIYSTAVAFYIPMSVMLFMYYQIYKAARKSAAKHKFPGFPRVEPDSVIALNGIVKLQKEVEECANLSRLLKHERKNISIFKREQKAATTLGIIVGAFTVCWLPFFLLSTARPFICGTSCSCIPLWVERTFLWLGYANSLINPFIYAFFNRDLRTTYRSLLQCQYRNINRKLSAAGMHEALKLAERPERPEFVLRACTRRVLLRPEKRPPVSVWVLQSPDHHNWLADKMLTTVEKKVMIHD
Sequence of 5-hydroxytryptamine receptor 2C (Homo sapiens) (P28335 whole entry): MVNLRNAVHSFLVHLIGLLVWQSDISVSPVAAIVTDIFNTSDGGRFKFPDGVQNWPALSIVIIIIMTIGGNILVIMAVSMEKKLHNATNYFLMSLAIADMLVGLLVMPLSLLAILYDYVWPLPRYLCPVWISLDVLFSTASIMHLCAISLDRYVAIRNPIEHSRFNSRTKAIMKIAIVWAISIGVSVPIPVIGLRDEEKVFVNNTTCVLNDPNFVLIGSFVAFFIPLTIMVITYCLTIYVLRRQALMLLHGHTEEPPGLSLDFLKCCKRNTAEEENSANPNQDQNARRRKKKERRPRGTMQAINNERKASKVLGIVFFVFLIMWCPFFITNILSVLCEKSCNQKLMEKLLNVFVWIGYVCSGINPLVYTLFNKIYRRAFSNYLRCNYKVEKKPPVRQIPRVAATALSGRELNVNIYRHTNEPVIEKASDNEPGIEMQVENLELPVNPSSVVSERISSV
Sequence of D(1A) dopamine receptor (Homo sapiens) (P21728 whole entry): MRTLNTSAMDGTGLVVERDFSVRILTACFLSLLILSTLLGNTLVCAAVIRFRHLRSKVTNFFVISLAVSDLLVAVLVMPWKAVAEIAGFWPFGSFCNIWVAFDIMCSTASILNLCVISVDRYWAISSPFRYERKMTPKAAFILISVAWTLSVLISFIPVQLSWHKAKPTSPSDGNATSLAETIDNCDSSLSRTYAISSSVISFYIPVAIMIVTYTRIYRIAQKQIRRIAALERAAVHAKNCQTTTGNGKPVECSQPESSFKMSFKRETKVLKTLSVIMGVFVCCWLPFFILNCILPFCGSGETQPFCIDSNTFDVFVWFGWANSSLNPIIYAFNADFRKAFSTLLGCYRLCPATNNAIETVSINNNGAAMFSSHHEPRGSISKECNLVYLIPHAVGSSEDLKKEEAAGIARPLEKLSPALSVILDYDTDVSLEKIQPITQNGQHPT
Sequence of Beta-1 adrenergic receptor (Homo sapiens) (P08588 whole entry, looked up): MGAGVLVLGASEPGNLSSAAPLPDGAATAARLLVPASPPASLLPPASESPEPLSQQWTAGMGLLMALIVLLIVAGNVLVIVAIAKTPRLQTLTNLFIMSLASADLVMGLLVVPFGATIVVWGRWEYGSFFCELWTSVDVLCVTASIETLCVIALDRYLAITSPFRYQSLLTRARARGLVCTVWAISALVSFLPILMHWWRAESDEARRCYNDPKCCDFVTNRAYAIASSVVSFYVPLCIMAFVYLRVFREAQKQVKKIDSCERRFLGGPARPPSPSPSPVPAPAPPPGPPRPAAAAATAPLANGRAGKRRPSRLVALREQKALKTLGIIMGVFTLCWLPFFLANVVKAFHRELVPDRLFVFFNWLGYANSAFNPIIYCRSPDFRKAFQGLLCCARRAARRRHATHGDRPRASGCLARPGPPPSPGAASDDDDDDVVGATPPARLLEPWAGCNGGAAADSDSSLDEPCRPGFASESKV

AUC(0-t) [1]: 684 ng·h/mL | AUC(0-inf) [2]: 1550 ng·h/mL | Activity (Homo sapiens [3]): inactive | Fu (Plasma [4]): 0.026% | Activity [5]: inactive | Activity [6]: inactive | Papp A→B at 1 µM [7]: 0.6 ×10⁻⁶ cm/s | half-life at 0.5 µM (CYP1A2): 0.75 h | AUC(0-inf) [8]: 40.7 ng·h/mL | Vd [9]: 1 L/kg | Tmax [10]: 2.1 h | AUC(0-inf) [11]: 1930 ng·h/mL | Cmax [12]: 4.7 ng/mL | clearance [14]: 4.7 mL/min/kg | bioavailability [15]: 12% | half-life [16]: 7.8 h | Papp A→B at 10 µM [17]: 0.4 ×10⁻⁶ cm/s | Tmax [18]: 2.8 h | Activity (Homo sapiens [19]): inactive | Activity [20]: inactive | Activity [21]: inactive | Activity [22]: inactive | Vd [23]: 3.3 L/kg | AUC(0-inf) [24]: 379 ng·h/mL | half-life [25]: 14.1 h | half-life [26]: 6.3 h | Fu (Plasma [27]): 0.0097% | AUC(0-inf) [28]: 55 ng·h/mL | Papp B→A at 1 µM [29]: 0.4 ×10⁻⁶ cm/s | clearance [30]: 7.6 mL/min/kg | bioavailability [31]: 43% | AUC(0-inf) [32]: 530 ng·h/mL | bioavailability [33]: 2.6% | Activity [34]: inactive | IC50 [35]: 2.9 nM | Activity [36]: inactive | Activity (Homo sapiens [37]): inactive | half-life [38]: 2 h | Papp A→B at 1 µM [39]: 0.9 ×10⁻⁶ cm/s | Activity (Homo sapiens [40]): inactive | Cmax [41]: 26.8 ng/mL | Activity [42]: inactive | Activity [43]: inactive | Activity [44]: inactive | half-life at 0.5 µM (CYP2C9): 0.783 h | clearance [45]: 12 mL/min/kg | AUC(0-t) [46]: 5610 ng·h/mL | bioavailability [47]: 10.6% | half-life at 0.5 µM [48]: 0.8 h | AUC(0-t) [49]: 485 ng·h/mL | Cmax [50]: 31.1 ng/mL | half-life [51]: 6.3 h | AUC(0-t) [52]: 1490 ng·h/mL | IC50 (Cytochrome P450 1A2): > 30000 nM | Activity [53]: inactive | Cmax [54]: 250 ng/mL | Activity [55]: inactive | clearance [56]: 5.5 mL/min/kg | Activity [57]: inactive
Structure (SMILES): CN(Cc1ccccc1)C(=O)[C@@H](NC(=O)c1cc2cc(NC(=O)c3ccccc3-c3ccc(C(F)(F)F)cc3)ccc2n1C)c1ccccc1 [DIRLOTAPIDE]
Activity (Homo sapiens [13]): inactive | ED25 (Mus musculus): 6 mg/kg | Activity (Canis familiaris): 1.86%
